Experimental data taken from patent US8372380B2, “In vivo imaging of sulfotransferases” (The Regents of the University of California, priority 2007, dated 2013).

Tests used:
sulfotransferase SULT1A1 [1] = molecular target: T1, sulfotransferase SULT1A1 (Homo sapiens, UniProt P50225); assay: Inhibition of SULT1A1 sulfonation of para-nitrophenol (PNP); assay type: biochemical; details: inhibition of SULT1A1 sulfonation of 4-nitrophenol; 37° C., 15 min, [35S]-PAPS
T1 construct: purchased Sigma; host or cells: sf-9 insect cells (baculovirus)
T1 sequence (P50225 whole entry): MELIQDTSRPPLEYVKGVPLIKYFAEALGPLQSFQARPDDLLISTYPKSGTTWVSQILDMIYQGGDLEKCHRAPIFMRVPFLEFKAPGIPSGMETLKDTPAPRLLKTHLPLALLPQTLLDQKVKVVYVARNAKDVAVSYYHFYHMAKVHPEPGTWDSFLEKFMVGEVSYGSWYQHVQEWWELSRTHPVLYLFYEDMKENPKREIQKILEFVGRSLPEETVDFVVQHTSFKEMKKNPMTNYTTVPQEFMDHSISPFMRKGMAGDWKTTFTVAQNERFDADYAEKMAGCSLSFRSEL
Excerpt: (§1) β-Naphthol (BN, a reference control), para-nitrophenol (PNP), estradiol (E2), dehydroepiandrosterone (DHEA), dopamine, dithiothreitol (DTT), and MgCl2 were purchased from Sigma (St. Louis, Mo.). Cytosolic extract of sf-9 insect cells infected with a baculovirus containing SULT cDNAs (SULT1A1, SULT1A3, SULT1E1, SULT2A1) were also purchased from Sigma. [^35S]-3′-Phosphoadenosine 5′-Phosphosulfate (PAPS)(1-3 Ci/mmol) was purchased from Perkin Elmer (Waltham, Mass.). Aluminum-backed silica TLC plates were purchased from Whatman.
Substrate sulfonation assays were performed using cytosolic sulfotransferases SULT1A1, SULT1A3, SULT1E1, and SULT2A1. Enzyme kinetic parameters were determined by using substrate concentration curves. The sulfonation reaction was carried out using [^35S]-PAPS as the sulfate donor, and the reaction mixture was analyzed using a thin-layer chromatography (TLC) method described in literature (Falany et al., 2006). Reaction mixtures consisted of 10 μL of substrates, originally dissolved in dimethyl sulfoxide and diluted to 1% with Tris-HCl buffer; 50 mM Tris-HCl buffer, pH 7.4; 0.1% bovine serum albumin; 7.5 mM DTT; and 1 μM [^35S]-PAPS in the final volume of 50 μL. The final concentration of dimethyl sulfoxide was kept at 0.2%. Reactions with SULT1E1 and SULT2A1 were supplemented with 7 mM MgCl2; reactions with SULT1A3 included 1 mM pargyline. Control reactions were performed under identical conditions without addition of substrates. Sulfonation reactions were carried out at 37° C. for 15 min. Enzymatic activity was terminated by precipitation with 50 μL of ice cold methanol and cooling the mixture at −20° C. Subsequently, 20 μL aliquots of the supernatant were spotted on silica gel TLC plates and were developed in t-butanol:acetic acid:water (8:1:1 by volume). Sulfonated products (Rf=0.66±0.05) were well separated from unreacted [^35S]PAPS, which was retained at the origin. TLC plates were exposed on digital autoradiography plates for 2 hrs and read in with a Fuji BAS-5000 digital autoradiography plate reader. The results were quantitated with the software provided with the scanner. Spots were localized and the silica gel was scraped into liquid scintillation vials. Vials were counted using MP-Ecolite+ LS fluid and a Packard Tricarb 2300TR LSC for 5 min per vial. Reactions were monitored for linearity with time and enzyme concentration to ensure the enzyme was the limiting factor.
In vitro inhibition reactions were performed using the standard SULT1A1 substrate, para-nitrophenol (PNP), against various 4′-substituted 2-phenyl-6-hydroxybenzothiazoles shown in Table 3. PNP was dissolved in 50 mM Tris-HCl buffer (pH 7.4), and inhibitors were dissolved in dimethyl sulfoxide and diluted to 1% dimethyl sulfoxide concentration with the Tris-HCl buffer. […]

brain SULT1A enzymes = details: Vietri et al., 2002b, read-out: IC50 for blocking sulfonation of R(−)-apomorphine; cited from earlier work
sulfotransferase SULT1A1 [2] = molecular target: T2, sulfotransferase SULT1A1 (Rattus norvegicus, UniProt P17988); assay: In vivo microPET imaging of sulfotransferase activity and inhibition in rat; design: species or system Sprague-Dawley rat
T2 construct: from tissue; host or cells: living Sprague-Dawley rat (brain, chest, abdomen)
T2 sequence (P17988 whole entry): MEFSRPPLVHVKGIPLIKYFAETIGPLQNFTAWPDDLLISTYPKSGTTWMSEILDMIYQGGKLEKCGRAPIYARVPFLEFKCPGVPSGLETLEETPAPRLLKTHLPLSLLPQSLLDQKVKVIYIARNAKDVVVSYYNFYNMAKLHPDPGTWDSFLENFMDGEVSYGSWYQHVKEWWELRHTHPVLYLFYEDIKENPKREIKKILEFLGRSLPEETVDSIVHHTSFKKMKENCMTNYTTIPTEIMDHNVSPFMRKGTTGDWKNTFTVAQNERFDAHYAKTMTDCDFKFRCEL
Procedure: (§2) A bolus of a radiolabeled tracer is administered intravenously to a non-human primate, rodent, or other non-human mammal, and the distribution of tracer transport activity is followed by radiographic means, e.g., PET, microPET and/or SPECT. For PET, an intravenous dose of the tracer contains ˜0.1-3 mCi/kg (body weight) dissolved in <1 ml of 10% ethanol in saline. The identity of each organ and tissue taking up the tracer can be confirmed by CT scans. Scans can be conducted both with and without administering one or more pharmacological agents, e.g., 2,6-dichloro-4-nitrophenol, quercitin, curcumin, etc.
FIG. 7 depicts in vivo microPET imaging of sulfotransferase activity and inhibition in a male, Sprague-Dawley rat suffering from renal hypertension, chronic progressive nephropathy, and lung inflammation, using 4-[^18F]-fluoro-3-nitrophenol as a substrate and 2,6-dichloro-4-nitrophenol as an inhibitor. 4-[^18F]-fluoro-3-nitrophenol was administered as a bolus injection (0.5 to 2.0 mCi) and the rat brain was scanned dynamically for 60 min. Subsequently, the chest was scanned for 5 min., followed by a 5 min. scan of the abdomen.

sulfotransferase SULT1E1 [3] = molecular target: T3, sulfotransferase SULT1E1 (Homo sapiens, UniProt P49888); assay: In vivo PET imaging of SULT1E1 expression in humans; details: PET 20-45 minutes after injection
T3 construct: from tissue; host or cells: living human subjects (lungs, liver, kidneys)
T3 sequence (P49888 1-294): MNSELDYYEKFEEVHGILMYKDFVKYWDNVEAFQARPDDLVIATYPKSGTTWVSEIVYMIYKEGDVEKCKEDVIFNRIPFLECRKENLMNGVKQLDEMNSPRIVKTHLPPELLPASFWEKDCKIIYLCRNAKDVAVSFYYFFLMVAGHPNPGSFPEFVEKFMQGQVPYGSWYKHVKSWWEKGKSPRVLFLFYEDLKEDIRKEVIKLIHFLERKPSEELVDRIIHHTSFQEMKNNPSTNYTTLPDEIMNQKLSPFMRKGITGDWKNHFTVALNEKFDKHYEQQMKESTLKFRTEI
Procedure: A bolus of a radiolabeled tracer is administered to a human subject by intravenous injection, and its uptake into a tumor (in the case of cancer), one or more organs of interest, and/or other tissues of the body is followed radiographically. For a 50-70 kg person, 10 mCi of an appropriate tracer from Table 1 or 2 (e.g.) is dissolved in <10 ml 10% ethanol in saline and is injected intravenously, and the distribution of the tracer is followed dynamically with PET for up to 2 hours (multiple whole-body scans at different time intervals or dynamic PET scan of a specific organ). SULT activity in organs and tissues is determined using tracer kinetic modeling from the PET determined tracer uptake data. The anatomical location of tracer uptake in both normal subjects and cancer patients can be determined using CT scans.
FIG. 6 depicts in vivo PET imaging of sulfotransferase SULT1E1 expression in two adult male humans. […] Increased SULT1E1 expression associated with lung inflammation caused by smoking is clearly visible in the lungs of the smoker. Both subjects were scanned with PET 20-45 minutes after being injected with the tracer 2-(4′-([^11C]-methylamino)phenyl)-6-hydroxybenzothiazole. The smoker received a dose of 10.5 mCi, and the non-smoker received 10.0 mCi. The images were normalized by dividing the signal values with dose injected per kg of body weight.

[4] = rat brain; Mathis et al., 2004; cited from earlier work
SULT1E1 = molecular target: T4, SULT1E1 (Homo sapiens, UniProt P49888); assay: Substrate sulfonation assay, SULT1E1; assay type: biochemical; details: in vitro sulfonation
T4 construct: purchased Sigma; host or cells: sf-9 insect cells (baculovirus)
T4 sequence (P49888 1-294): T3 sequence (P49888 1-294)
Excerpt: as §1
(§3) Substrate sulfonation assays were performed using cytosolic sulfotransferases SULT1A1, SULT1A3, SULT1E1, and SULT2A1. Enzyme kinetic parameters were determined by using substrate concentration curves. The sulfonation reaction was carried out using [^35S]-PAPS as the sulfate donor, and the reaction mixture was analyzed using a thin-layer chromatography (TLC) method described in literature (Falany et al., 2006). […] TLC plates were exposed on digital autoradiography plates for 2 hrs and read in with a Fuji BAS-5000 digital autoradiography plate reader. The results were quantitated with the software provided with the scanner. […] Vials were counted using MP-Ecolite+ LS fluid and a Packard Tricarb 2300TR LSC for 5 min per vial. Reactions were monitored for linearity with time and enzyme concentration to ensure the enzyme was the limiting factor. […]

[5] = Plasma metabolite analysis of tracer in rats; assay type: in vivo, Sprague-Dawley rats; details: rat plasma, after 10-15 min
Procedure: (§4) FIG. 5 depicts in vivo microPET imaging of sulfotransferase SULT1E1 expression in healthy and inflamed lungs in 8-9 month old male Sprague-Dawley rats, using the substrate 2-(4′-([^11C]-methylamino)phenyl)-6-hydroxybenzothiazole. On the left are shown the chest and upper abdomen of a healthy control rat; on the right is a rat suffering from renal hypertension, chronic progressive nephropathy, and lung inflammation. Both animals were injected with 2.0-2.5 mCi of activity. The images shown were acquired over the period of 15-25 min after injection. […] Warmer colors represent higher levels of tracer uptake.
Metabolite analysis was performed using reverse phase C-18 TLC plates and a mixture of methanol, acetic acid and water (80:5:15, respectively). Plasma was de-proteinated with addition of an equal volume of methanol. The supernatant was spotted on the plates and the plates developed in the mobile phase. The analysis of the plates was performed as described above in the description of the sulfonation assays (Ex. 1-25). Metabolites were identified as follows: […] samples of plasma were mixed with 500-1000 U of either […] (to remove the sulfonated metabolite) or glucoronidase (to remove glucoronidated metabolite). […] The supernatants were analyzed as described above and the results compared with the results for un-treated plasma.

SULT1A1 = molecular target: T5, SULT1A1 (Homo sapiens, UniProt P50225); assay: Substrate sulfonation assay, SULT1A1; assay type: biochemical; details: in vitro sulfonation
T5 construct: purchased Sigma; host or cells: sf-9 insect cells (baculovirus)
T5 sequence (P50225 whole entry): as the sequence (P50225 whole entry) above
Excerpt: as §1, §3

sulfotransferase SULT1E1 [6] = assay: In vivo microPET imaging of SULT1E1 expression in rats; design: species or system Sprague-Dawley rats; details: images 15-25 min after injection
Procedure: as §2, §4

Oc1ccc2nc(-c3ccc(F)cc3)sc2c1 [Compound 19]
Ki (sulfotransferase SULT1A1 [1]): 140 ± 10 nM

O=c1c(O)c(-c2ccc(O)c(O)c2)oc2cc(O)cc(O)c12 [quercitin]
IC50 (brain SULT1A enzymes): 16 ± 2.3 nM

O=[N+]([O-])c1cc(Cl)c(O)c(Cl)c1 [2,6-dichloro-4-nitrophenol]
effect on SULT1A1 activity in vivo (microPET) (sulfotransferase SULT1A1 [2]; 5 mg/Kg at the time of the 4-[18F]-fluoro-3-nitrophenol bolus injection): inhibitory effect on SULT1A1 activity

CNc1ccc(-c2nc3ccc(O)cc3s2)cc1 [Compound 14]
Ki (sulfotransferase SULT1A1 [1]): 5.1 ± 0.3 nM

O=[N+]([O-])c1cc(O)ccc1[18F] [4-[^18F]-fluoro-3-nitrophenol, 4-[^18F]Fluoro-3-nitrophenol]
substrate for SULT1A1 in vivo (microPET) (sulfotransferase SULT1A1 [2]; rat, bolus injection 0.5 to 2.0 mCi): is a substrate for the sulfotransferase SULT1A1

COc1ccc(-c2nc3ccc(O)cc3s2)cc1 [Compound 17]
Ki (sulfotransferase SULT1A1 [1]): 24 ± 2 nM

[11CH3]Nc1ccc(-c2nc3ccc(O)cc3s2)cc1 [2-(4′-([^11C]-methylamino)phenyl)-6-hydroxybenzothiazole]
tracer activity in liver and kidneys (sulfotransferase SULT1E1 [3]): high level of activity
tracer uptake in lungs (sulfotransferase SULT1E1 [3]; versus background (muscles)): increased level of uptake compared with the background
sulfonation in brain in vivo [4]: sulfonated in the rat brain in vivo
substrate for SULT1E1 (SULT1E1): good marker of sulfotransferases, most specifically SULT1E1
fraction of tracer in sulfated form in plasma [5]: ~90%
substrate for SULT1A1 (SULT1A1): not a substrate for SULT1A1
tracer uptake in lungs (sulfotransferase SULT1E1 [6]; healthy control rat): indistinguishable from the background
tracer uptake in lungs (sulfotransferase SULT1E1 [6]; rat with lung inflammation): increased uptake
tracer activity in liver (sulfotransferase SULT1E1 [6]; rats): high level of activity

CC(=O)Nc1ccc(-c2nc3ccc(O)cc3s2)cc1 [Compound 18]
Ki (sulfotransferase SULT1A1 [1]): 100 ± 20 nM
